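Growth conditions: 96-well plates. Treatment: test compound, 48 hours, 5 concentrations. Analysis: linear interpolation between bracketing concentrations; unreached endpoints set to highest concentration. GI50: concentration for 50% inhibition of growth. TGI marks complete inhibition of growth.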
Columns and labels:
Experiment in all cases: NCI anticancer screen, dose series, 48 h
M14 melanoma = tested on: M14 melanoma
SF-295 CNS = tested on: SF-295 CNS
NCI-H226 lung = tested on: NCI-H226 lung
SK-OV-3 ovarian = tested on: SK-OV-3 ovarian
OVCAR-3 ovarian = tested on: OVCAR-3 ovarian
NCI-H23 lung = tested on: NCI-H23 lung
HS 578T breast = tested on: HS 578T breast
NCI/ADR-RES ovarian = tested on: NCI/ADR-RES ovarian

Row | SMILES | TGI (M14 melanoma) [µM] | TGI (SF-295 CNS) [µM] | TGI (NCI-H226 lung) [µM] | TGI (SK-OV-3 ovarian) [µM] | TGI (OVCAR-3 ovarian) [µM] | TGI (NCI-H23 lung) [µM] | GI50 (M14 melanoma) [µM] | GI50 (SF-295 CNS) [µM] | GI50 (HS 578T breast) [µM] | TGI (HS 578T breast) [µM] | GI50 (NCI-H226 lung) [µM] | GI50 (NCI/ADR-RES ovarian) [µM] | TGI (NCI/ADR-RES ovarian) [µM] | GI50 (NCI-H23 lung) [µM] | GI50 (SK-OV-3 ovarian) [µM] | GI50 (OVCAR-3 ovarian) [µM]
1 | C[C@H]1[C@H](C)CC[C@]2(C(=O)O)CCC3(COC(=O)/C=C/c4ccc(O)cc4)C(=CCC4[C@@]5(C)CC[C@H](O)C(C)(C)C5CC[C@]43C)[C@H]12 (stereo partly drawn) | 24.9 | 13.2 | 23.4 | 6.99 | 24.5 |  |  |  |  |  |  |  |  |  |  | 
2 | Cc1cc(=O)n2c(cc3cccccc32)n1 | > 100 | > 100 | > 100 |  | > 100 | > 100 |  |  |  |  |  |  |  |  |  | 
3 | CCOC1Oc2ccccc2C(=O)/C1=C\Nc1ccc(C(=O)O)c(O)c1 (stereo not drawn) | 36 | 55.4 | 80.1 | 67.6 | 56.3 | 63.1 | 17.3 | 21.9 | 35 | 90 | 28.1 | 20.5 | 62 | 21.4 | 21.7 | 25.2
4 | O=C(C(=O)c1cccnc1)c1cccnc1 | > 100 | > 100 | > 100 | > 100 | > 100 | > 100 | > 100 | > 100 | > 100 | > 100 | > 100 | > 100 | > 100 | > 100 | > 100 | > 100
5 | CCc1c2c(nc3ccc(OC(=O)OCc4ccc(B5OC(C)(C)C(C)(C)O5)cc4)cc13)-c1cc3c(c(=O)n1C2)COC(=O)[C@]3(O)CC | 0.92 | 1.48 | 0.157 | > 100 | 1.46 | 0.437 | < 0.01 | < 0.01 | 0.547 | 19.8 | 0.011 | 0.0273 | > 100 | < 0.0107 | 0.0151 | 0.0716
6 | O=C(CCN1CCCC1)Nc1ccc2c(Nc3ccc(Br)cc3)c3ccccc3nc2c1 |  | 3.02 | 3.02 |  | 3.11 | 2.92 |  | 1.59 |  |  | 1.39 |  |  | 1.47 |  | 1.61
7 | CCCCCCCCCCCCSC1=CC(=O)C=CC1=O | > 37.1 | 4.75 | 19 | > 33.4 | 7.91 | 21.6 | 11.7 | 1.44 | 1.96 | 21.8 | 6.58 | 1.65 | > 20.6 | 5.69 | 12.2 | 1.98
8 | CC[C@H](C)C(=O)O[C@H]1CCC=C2C=C[C@H](C)[C@H](CC[C@@H]3C[C@@H](O)CC(=O)O3)[C@H]21 | > 100 | 4.32 | > 82.2 | > 100 | > 100 | > 100 | 8.97 | 1.66 | 4.56 | > 100 | 6.82 | 3.34 | > 100 | 8.37 | 5.96 | 
9 | CCCn1cc(/C=N\N=C2\C(=O)Nc3ccc(C)cc32)c2ccccc21 | 4.7 | 96.6 | 20.6 | 67.1 | 5.11 | 38.2 | 1.92 | 8.41 | 11.3 | > 100 | 2.95 | 6.39 | 89.9 | 3.13 | 11.7 | 1.36
